Entries after “also recorded” stand apart in the source; their conditions may differ. Structures can show the parent of a compound that is named as a salt. Where two headings read alike, the source gives them in different places.
Assays:
Klebsiella aerogenes A = experiment: Antibacterial synergism, microtitre method (MIC); type: cell-based
[1] = test system: Klebsiella aerogenes E 70; experiment: Antibacterial synergism, microtitre method (MIC); type: cell-based
Staphylococcus = experiment: Antibacterial synergism, microtitre method (MIC); type: cell-based
Klebsiella aerogenes 62 = experiment: Antibacterial synergism, microtitre method (MIC); type: cell-based
Klebsiella acrogenes A = experiment: Growth inhibition and synergism; type: cell-based, Klebsiella aerogenes; details: 5 μg/ml. of clavulanic acid also present
[2] = test system: Staphylococcus aureus (Russell); experiment: Synergism of clavulanic acid methyl ester (M.I.C.); type: cell-based; details: in the presence of 1.0 μg/ml. clavulanic acid methyl ester
[3] = Hydrolysis of ester to clavulanic acid in pH 7 buffer; type: physicochemical; details: buffered to pH 7 (0.05M phosphate, 37° C., 1 mg/ml, 2 hours in Example 29)
Description: The reaction was followed by paper chromatography (bioautographic system). Using the butanol/ethanol/water system to follow the reaction over a period of 2 hours the zone of the methyl ester at Rf 0.79 decreased in size as the zone of clavulanic acid at Rf 0.12 increased.

Enterobacter cleacea = experiment: Antibacterial spectrum, microtitre method (MIC); type: cell-based; details: read-out: Minimum Inhibitory Concentration
[4] = test system: Staphylococcus aureus (Russell); experiment: Antibacterial synergism, microtitre method (MIC); type: cell-based; details: Table 6
Enterohacter cloacae = experiment: Antibacterial synergism, microtitre method (MIC); type: cell-based; details: read-out: Minimum Inhibitory Concentration, agent alone
[5] = molecular target: T1, β-lactamase produced by Escherichia coli JT4 (Escherichia coli, UniProt P62593); experiment: β-lactamase inhibition assay (Description 1); type: biochemical
T1 construct: the cell debris was removed by centrifugation and aliquots of the supernatant stored deep frozen; endogenous in cells; host or cells: Escherichia coli JT4 (R factor), ultrasonic extract
T1 sequence (P62593 24-286 limits assumed): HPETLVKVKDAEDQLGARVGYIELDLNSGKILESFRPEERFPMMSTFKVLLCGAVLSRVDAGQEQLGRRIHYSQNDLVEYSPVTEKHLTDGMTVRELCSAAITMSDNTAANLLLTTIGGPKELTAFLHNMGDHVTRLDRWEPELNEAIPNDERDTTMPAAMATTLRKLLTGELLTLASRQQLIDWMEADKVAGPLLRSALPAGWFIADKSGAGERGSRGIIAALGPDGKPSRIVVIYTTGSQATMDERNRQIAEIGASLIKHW
Description: Solutions containing clavulanic acid (culture filtrate, samples from isolation procedure and the like) are incubated for 15 minutes with a β-lactamase preparation in 0.05M phosphate buffer at pH 7 and 37° C. During this time, enzyme inhibition or inactivation occurs. Substrate (benzylpenicillin) is then added and incubation continued for 30 minutes at 37° C. The amount of enzymic degradation of the substrate to penicilloic acid is determined by the hydroxylamine assay for penicillin. The amount of β-lactamase used is such as to give 75% hydrolysis of the benzylpenicillin in 30 minutes at 37° C.
The extent of hydrolysis is a reflection of the amount of enzyme remaining uninhibited.
The β-lactamase produced by Escherichia coli JT4 is used as an enzyme.
The culture maintained on nutrient agar slopes, is inoculated into 400 ml. of sterile Tryptone medium contained in a 2 liter conical flask. This medium has the following composition Tryptone (Oxoid) 32 g/l, yeast extract (Oxoid) 20 g/l, Nacl 5 g/l and Cacl2 6H2 O 2.2 g/l. […]
Suitable dilutions of the inhibitor preparation and β-lactamase solution are mixed and incubated at 37° C. for 15 minutes (Test). […] The absorption of the final solutions is measured in an E.E.L. Colorimeter or a Spectrophotometer at 490 nm against the reagent blank.
The percentage inhibition of the β-lactamase is calculated as follows- - […]

Stability in human blood = type: in vitro ADME
[6] = +5 μg/ml benzyl ester of clavulanic acid
[7] = +5 μg/ml methyl ester of clavulanic acid

Structure (SMILES): CC1(C)S[C@@H]2[C@H](NC(=O)[C@H](N)c3ccccc3)C(=O)N2[C@H]1C(=O)O [ampicillin]
- MIC of Ampicillin + 5 μg/ml of Benzyl Ester of clavulanic acid (Klebsiella aerogenes A; [6]): 1.9 µg/mL
- MIC of Ampicillin + 5 μg/ml of Methyl Ester of clavulanic acid (Klebsiella aerogenes A; [7]): 1.9 µg/mL
- MIC of Ampicillin + 5 μg/ml of Benzyl Ester of clavulanic acid [1, 6]: 3.9 µg/mL
- MIC of Ampicillin + 5 μg/ml of Methyl Ester of clavulanic acid [1, 7]: 3.9 µg/mL
- MIC (Staphylococcus; alone, inoculum 0.5×10^-2, read-out: Minimum Inhibitory Concentration, agent alone): 250 µg/mL
- MIC of Ampicillin + 5 μg/ml of Benzyl Ester of clavulanic acid (Klebsiella aerogenes 62; [6]): 3.9 µg/mL
- MIC of Ampicillin + 5 μg/ml of Methyl Ester of clavulanic acid (Klebsiella aerogenes 62; [7]): 3.9 µg/mL

Structure (SMILES): CC1(C)S[C@@H]2[C@H](NC(=O)Cc3ccccc3)C(=O)N2[C@H]1C(=O)O [benzylpenicillin]
- concentration of penicillin inhibiting growth (Klebsiella acrogenes A): less than 12.5 μg/ml

Structure (SMILES): CC1(C)S[C@@H]2[C@H](NC(=O)C(C(=O)O)c3ccccc3)C(=O)N2[C@H]1C(=O)O (some centres unmarked) [carbenicillin]
- concentration of penicillin inhibiting growth (Klebsiella acrogenes A): less than 12.5 μg/ml

Structure (SMILES): O=C(Cc1cccs1)N[C@@H]1C(=O)N2C(C(=O)[O-])=C(C[n+]3ccccc3)CS[C@H]12 [cephaloridine]
- M.I.C. of antibiotic in presence of synergist [2]: < 0.03 µg/mL

Structure (SMILES): COC(=O)[C@H]1/C(=C/CO)O[C@@H]2CC(=O)N21 [clavulanic acid methyl ester]
- hydrolysis of ester to clavulanic acid [3]: slowly hydrolyse to clavulanic acid; also recorded: Slow conversion of the ester to clavulanic acid

Structure (SMILES): O=C(O)[C@H]1/C(=C/CO)O[C@@H]2CC(=O)N21 [clavulanic acid sodium salt, 3-(β-hydroxyethylidine)-7-oxo-4-oxa-1-azabicyclo [3,2,0]heptane-2-carboxylic acid sodium salt]
- MIC (Enterobacter cleacea): 62 µg/mL
- Minimum Inhibitory Concentration, agent alone [4]: 15 µg/mL
- MIC (Enterohacter cloacae): 62 µg/mL
- MIC (Staphylococcus; read-out: Minimum Inhibitory Concentration, agent alone): 62 µg/mL

Structure (SMILES): O=C(O)[C@H]1/C(=C/CO)O[C@@H]2CC(=O)N21 [clavulanic acid, Z-(2R,5R)-3-(β-hydroxyethylidene)-7-oxo-4-oxa-1-azabicyclo[3,2,0]heptane-2-carboxylic acid]
- mode of β-lactamase inhibition [5]: progressively and irreversibly inhibits
- stability in human blood (Stability in human blood): high stability
